Measurements taken from patent US20260234115A1, “LIPID COMPOUNDS, COMPOSITIONS, AND USES THEREOF” (Liberate Bio, Inc., priority 2023, published 2026).
Marks after values point to notes of the source that are not given here.

Key:
[1] = Dynamic light scattering: LNP particle size and PDI; type: physicochemical; details: for Particle Size (nm) / PDI: LNP compositions for in vivo mouse study; for Particle Size (nm): four formulations (F1-F4) of the lipid compound pooled, or pools of four compounds (sixteen compositions); for PDI: four formulations (F1-F4) pooled, or pools of four compounds; for PDI N/P:3 / Size (nm) N/P:3 / PDI N/P:6 / Size (nm) N/P:6: LNP
In short: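 The LNPs were made by microfluidic mixing of the lipids in ethanol with mRNA in pH 4.0 citrate, then dialyzed into PBS pH 7.4. They were diluted in PBS pH 7.4, and particle size and PDI were measured by dynamic light scattering.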

[2] = Plate-based fluorescence (RiboGreen) assay: nucleic acid cargo content and encapsulation efficiency of LNPs; type: physicochemical; details: for EE % / mRNA Content: LNP compositions for in vivo mouse study, four formulations (F1-F4) pooled, or pools of four compounds; for EE (%) N/P:3 / EE (%) N/P:6: LNP
In short: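 LNPs made by microfluidic mixing of ethanolic lipids with mRNA in pH 4.0 citrate, dialyzed into PBS pH 7.4. Cargo quantified by RiboGreen fluorescence against a standard curve: Triton-lysed samples give total, TE-only samples give free cargo; encapsulation efficiency from their ratio.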

mouse organs = experiment: In vivo activity screening in mice: organ mean total flux (p/s) of luciferase activity after injection of F2 LNP pools (Table 6, FIG. 7A-7C); details: Mouse 1, dose 0.3 mg/kg, luciferase mRNA
In short: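 C57BL/6J mice given one tail-vein injection of pooled Formulation F2 LNPs carrying firefly luciferase mRNA (0.25-3 mg/kg) in PBS. At 4-6 h, s.c. D-luciferin given; organs imaged ex vivo by IVIS within 10-15 min, after saline cardiac perfusion. Mean total flux (p/s) per organ ROI.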

| SMILES | Particle Size (nm) [1] | PDI [1] | PDI N/P:3 ([1]; Formulation F1, N/P 3) | Size (nm) N/P:3 ([1]; Formulation F1, N/P 3) | PDI N/P:6 ([1]; Formulation F1, N/P 6) | Size (nm) N/P:6 ([1]; Formulation F1, N/P 6) | PDI N/P:3 ([1]; Formulation F2, N/P 3) | Size (nm) N/P:3 ([1]; Formulation F2, N/P 3) | PDI N/P:6 ([1]; Formulation F2, N/P 6) | Size (nm) N/P:6 ([1]; Formulation F2, N/P 6) | PDI N/P:3 ([1]; Formulation F3, N/P 3) | Size (nm) N/P:3 ([1]; Formulation F3, N/P 3) | PDI N/P:6 ([1]; Formulation F3, N/P 6) | Size (nm) N/P:6 ([1]; Formulation F3, N/P 6) | PDI N/P:3 ([1]; Formulation F4, N/P 3) | Size (nm) N/P:3 ([1]; Formulation F4, N/P 3) | PDI N/P:6 ([1]; Formulation F4, N/P 6) | Size (nm) N/P:6 ([1]; Formulation F4, N/P 6) | EE % [2] | mRNA Content [2] | also measured |
| --- | --- | --- | --- | --- | --- | --- | --- | --- | --- | --- | --- | --- | --- | --- | --- | --- | --- | --- | --- | --- | --- |
| CCCCCCCC/C=C\CCCCCCCC(=O)OCC(COC(=O)CCCCCCC/C=C\CCCCCCCC)(COC(=O)CCCCCCC/C=C\CCCCCCCC)COC(=O)CCC(CCCCCC)OC(=O)NCCN1CCCC1 (stereo not drawn) [Compound 1, 2-((oleoyloxy)methyl)-2-(((4-(((2-(pyrrolidin-1-yl)ethyl)carbamoyl)oxy)decanoyl)oxy)methyl)propane-1,3-diyl dioleate] | 89.9 nm | 0.143 | 0.084 | 85 ± 4 nm | 0.072 | 74 ± 1 nm | 0.052 | 99 ± 2 nm | 0.069 | 89 ± 2 nm | 0.037 | 136 ± 3 nm | 0.051 | 107 ± 3 nm | 0.153 | 78 ± 1 nm | 0.151 | 58 ± 2 nm | 99% | 102.4 µg/mL | EE (%) N/P:3 ([2]; Formulation F1, N/P 3): 97%; EE (%) N/P:6 ([2]; Formulation F1, N/P 6): 100%; EE (%) N/P:3 ([2]; Formulation F2, N/P 3): 98%; EE (%) N/P:6 ([2]; Formulation F2, N/P 6): 100%; EE (%) N/P:3 ([2]; Formulation F3, N/P 3): 97%; EE (%) N/P:6 ([2]; Formulation F3, N/P 6): 100%; EE (%) N/P:3 ([2]; Formulation F4, N/P 3): 98%; EE (%) N/P:6 ([2]; Formulation F4, N/P 6): 100%; Organ Mean Total Flux Femur (mouse organs): 0.8 p/s (×10^6); Organ Mean Total Flux Heart (mouse organs): 0.1 p/s (×10^6); Organ Mean Total Flux Kidney (mouse organs): 0.1 p/s (×10^6); Organ Mean Total Flux Liver (mouse organs): 17.5 p/s (×10^6); Organ Mean Total Flux Lung (mouse organs): 0.5 p/s (×10^6); Organ Mean Total Flux Muscle (mouse organs): 0.6 p/s (×10^6); Organ Mean Total Flux Pancreas (mouse organs): 0.2 p/s (×10^6); Organ Mean Total Flux Spleen (mouse organs): 1.7 p/s (×10^6) |
| CCCCCCCC/C=C\CCCCCCCC(=O)OCC(COC(=O)CCCCCCC/C=C\CCCCCCCC)(COC(=O)CCC(CCCCCC)OC(=O)NCCN1CCCC1)COC(=O)CCC(OCCCCCCCC)OCCCCCCCC (stereo not drawn) [Compound 4, [2-(4,4-dioctoxybutanoyloxymethyl)-2-[[(Z)-octadec-9-enoyl]oxymethyl]-3-[4-(2-pyrrolidin-1-ylethylcarbamoyloxy)decanoyloxy]propyl](Z)-octadec-9-enoate] | 93.4 nm | 0.022 | 0.092 | 86 ± 10 nm | 0.063 | 78 ± 2 nm | 0.041 | 97 ± 1 nm | 0.069 | 93 ± 1 nm | 0.089 | 116 ± 6 nm | 0.08 | 108 ± 2 nm | 0.068 | 73 ± 0 nm | 0.12 | 73 ± 2 nm | 99% | 99.1 µg/mL | EE (%) N/P:3 ([2]; Formulation F1, N/P 3): 98%; EE (%) N/P:6 ([2]; Formulation F1, N/P 6): 100%; EE (%) N/P:3 ([2]; Formulation F2, N/P 3): 98%; EE (%) N/P:6 ([2]; Formulation F2, N/P 6): 100%; EE (%) N/P:3 ([2]; Formulation F3, N/P 3): 94%; EE (%) N/P:6 ([2]; Formulation F3, N/P 6): 100%; EE (%) N/P:3 ([2]; Formulation F4, N/P 3): 98%; EE (%) N/P:6 ([2]; Formulation F4, N/P 6): 100%; Organ Mean Total Flux Femur (mouse organs): 15.6 p/s (×10^6); Organ Mean Total Flux Heart (mouse organs): 4.4 p/s (×10^6); Organ Mean Total Flux Kidney (mouse organs): 0.8 p/s (×10^6); Organ Mean Total Flux Liver (mouse organs): 105.0 p/s (×10^6); Organ Mean Total Flux Lung (mouse organs): 39.9 p/s (×10^6); Organ Mean Total Flux Muscle (mouse organs): 18.4 p/s (×10^6); Organ Mean Total Flux Pancreas (mouse organs): 5.0 p/s (×10^6); Organ Mean Total Flux Spleen (mouse organs): 17.6 p/s (×10^6) |
